Assay results published in patent US20230227492A1 (priority 2020, published 2023).
Like-named read-outs stand apart in the source and are kept apart here.

Tests used:
[1] = Liver S9 Fraction Stability Assay
[2] = biological target: T1, full-length, untagged, human estrogen receptors (ERα) (Homo sapiens, UniProt P03372); assay: ERα fluorescence polarization (FP) binding assay
T1 construct: insect cell-expressed, full-length, untagged, human estrogen receptors; purchased Life Technologies (Carlsbad, Calif.); host or cells: insect cells
Procedure: (§1) Receptor Binding Assay Information—In certain of the following examples, hormone receptor binding assays were used to determine the receptor binding activities of monomeric compound embodiments to androgen (AR), progesterone (PR), estrogen alpha (ERα) or glucocorticoid (GR) receptors. For AR, PR or ERα, the respective receptors are added to novel, tight-binding, selective ligands tagged with a fluorescent molecule, to form a receptor-ligand complex with a high polarization value. This complex is then added to individual monomeric compound embodiments that are contained in well plates. If the monomeric compound binds to the respective receptors, it displaces the fluorescent ligand from the complex, resulting in a low polarization value. In such embodiments, the monomeric compound is characterized as a competitor. […] In such embodiments, the monomeric compound is characterized as a noncompetitor. The shift in polarization value in the presence of the monomeric compound is used to determine the relative affinity of monomeric compound for the receptor.
For the androgen, progesterone, and estrogen receptor binding assays described herein, the preparation of reagents and test procedures is performed according to the manufacturer's instructions (Life Technologies, Carlsbad, Calif.). The plates are covered to protect the reagents from light and incubated at 20-25° C. for 4-8 hrs.
For ERα data, the ERα fluorescence polarization (FP) assay was used, which provides a sensitive and efficient method for high-throughput screening of potential ER ligands. The kit uses insect cell-expressed, full-length, untagged, human estrogen receptors and a tight-binding, fluorescent estrogen ligand (Fluormone™ ES2) in a homogenous mix-and-read assay format. ERα was added to a fluorescent estrogen ligand to form an ERα/Fluormone™ ES2 complex. This complex was then added to individual compound embodiments contained in 96-well plates. […] The change in polarization value in the presence of a compound embodiment was used to determine relative affinity of a compound embodiment for ERα.

[3] = biological target: T2, human PR ligand-binding domain tagged with GST [PR-LBD (GST)] (Homo sapiens, UniProt P06401); assay: PR fluorescence polarization (FP) binding assay; details: Fluormone PL Green
T2 construct: purchased Life Technologies (Carlsbad, Calif.)
T2 sequence (P06401 679-913 limits assumed): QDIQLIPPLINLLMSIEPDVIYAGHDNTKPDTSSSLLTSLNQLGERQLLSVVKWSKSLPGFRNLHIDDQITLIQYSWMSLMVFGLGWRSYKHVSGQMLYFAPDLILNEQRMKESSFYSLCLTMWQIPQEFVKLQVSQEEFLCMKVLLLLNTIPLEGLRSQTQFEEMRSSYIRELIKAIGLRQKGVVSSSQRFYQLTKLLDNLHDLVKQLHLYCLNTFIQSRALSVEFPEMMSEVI
Procedure: as §1
For the androgen, progesterone, and estrogen receptor binding assays described herein, the preparation of reagents and test procedures is performed according to the manufacturer's instructions (Life Technologies, Carlsbad, Calif.). The plates are covered to protect the reagents from light and incubated at 20-25° C. for 4-8 hrs. The fluorescence polarization of the samples is measured with 485 nm excitation and 530 nm emission interference filters.
In this example, PR binding activity was assessed using the PR fluorescence polarization (FP) assay, which provides a sensitive and efficient method for high-throughput screening of potential PR ligands. The kit uses human PR ligand-binding domain tagged with GST [PR-LBD (GST)], and a tight-binding, selective fluorescent progesterone ligand (Fluormone™ PL Green) in a homogenous mix-and-read assay format. Progesterone receptor [PR-LBD (GST)] was added to a fluorescent progesterone ligand (Fluormone™ PL Green) to form a PR-LBD (GST)/Fluormone™ PL Green complex resulting in a high polarization value. This complex was then added to individual compound embodiments in 96-well plates. Competitors displaced the fluorescent Fluormone™ PL Green ligand from the PR-LBD (GST)/Fluormone™ PL Green complex, causing the fluorescent ligand to tumble rapidly during its fluorescence lifetime, resulting in a low polarization value. […] The shift in polarization value in the presence of compound embodiments was used to determine relative affinity of compound embodiments for PR-LBD (GST). The fluorescence polarization of the samples was measured with 485 nm excitation and 530 nm emission interference filters. Results for monomeric compound embodiments wherein the R^2 groups is not present (such as to test compound activity after R^2 cleavage) are provided in Table 4.

[4] = biological target: T3, recombinant human aromatase (Homo sapiens, UniProt P11511); assay: Aromatization by recombinant human aromatase (CYP19+P450 reductase Supersomes); details: 10 μM, 37° C.
T3 sequence (P11511 1-503): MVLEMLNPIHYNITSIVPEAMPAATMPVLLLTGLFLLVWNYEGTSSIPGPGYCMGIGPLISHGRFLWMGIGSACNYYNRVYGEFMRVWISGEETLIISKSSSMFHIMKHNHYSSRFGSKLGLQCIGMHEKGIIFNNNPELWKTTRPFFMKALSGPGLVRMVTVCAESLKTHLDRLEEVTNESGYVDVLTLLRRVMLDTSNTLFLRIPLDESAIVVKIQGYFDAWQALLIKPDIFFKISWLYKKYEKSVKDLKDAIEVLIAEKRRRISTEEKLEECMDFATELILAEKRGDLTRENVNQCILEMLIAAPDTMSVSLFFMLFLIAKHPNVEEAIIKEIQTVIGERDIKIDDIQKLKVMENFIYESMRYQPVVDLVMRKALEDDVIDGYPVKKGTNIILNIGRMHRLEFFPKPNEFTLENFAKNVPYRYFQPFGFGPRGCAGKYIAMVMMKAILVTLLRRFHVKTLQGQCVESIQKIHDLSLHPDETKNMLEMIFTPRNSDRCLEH

[5] = system: castrated weanling rats; details: rat, in vivo
[6] = human liver S9, W/O NADPH, 1 μM
[7] = human liver S9, W/O NADPH, 10 μM
[8] = human liver S9, With NADPH, 1 μM
[9] = human liver S9, With NADPH, 10 μM

T1 sequence (P03372 whole entry): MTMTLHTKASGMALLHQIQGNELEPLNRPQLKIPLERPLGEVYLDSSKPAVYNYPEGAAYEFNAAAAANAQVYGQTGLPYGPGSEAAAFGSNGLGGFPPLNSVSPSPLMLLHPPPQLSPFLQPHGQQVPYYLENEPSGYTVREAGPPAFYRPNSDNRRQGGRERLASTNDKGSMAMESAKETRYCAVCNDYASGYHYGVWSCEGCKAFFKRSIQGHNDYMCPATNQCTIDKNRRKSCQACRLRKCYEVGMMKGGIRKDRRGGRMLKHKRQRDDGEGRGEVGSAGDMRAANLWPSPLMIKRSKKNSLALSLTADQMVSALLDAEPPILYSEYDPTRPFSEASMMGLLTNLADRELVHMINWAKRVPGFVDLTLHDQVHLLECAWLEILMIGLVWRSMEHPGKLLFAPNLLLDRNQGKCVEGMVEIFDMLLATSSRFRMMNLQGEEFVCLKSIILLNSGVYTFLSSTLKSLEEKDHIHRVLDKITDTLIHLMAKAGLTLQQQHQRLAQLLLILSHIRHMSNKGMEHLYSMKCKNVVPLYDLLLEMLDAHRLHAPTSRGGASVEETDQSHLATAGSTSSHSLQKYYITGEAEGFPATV

Compound: 7-α-methylnortestosterone dodecylcarbonate [CDB-4884]
- % parent molecule remaining after 2 hours at 37° C. [1, 6]: 89%
- % parent molecule remaining after 2 hours at 37° C. [1, 7]: 75%
- % parent molecule remaining after 2 hours at 37° C. [1, 8]: 75%
- % parent molecule remaining after 2 hours at 37° C. [1, 9]: 82%

Compound: 7α-t-Butyl Testosterone [CDB-4919]
- IC50 ([2]; fluorescence polarization, Fluormone ES2, read-out: IC50 (nM) ERα): 10400 nM
- IC50 ([3]; read-out: IC50 (nM) PR binding): 1400 nM
- % remaining at 60 min [4]: 92.0%

Compound: C[C@@H]1CC2=CC(=O)CC[C@@H]2[C@@H]2[C@@H]1[C@@H]1CC[C@H](O)[C@@]1(C)C[C@@H]2C [CDB-1321, dimethandrolone, reference compound]
- % remaining at 60 min [4]: 85.3%

Compound: C[C@@H]1CC2=CC(=O)CCC2C2C1C1CC[C@H](OC(=O)CCC(=O)O[C@H]3CCC4C5C(C6CCC(=O)C=C6C[C@H]5C)[C@@H](C)C[C@@]43C)[C@@]1(C)C[C@@H]2C (some centres unmarked) [CDB-4866]
- AUC (Ventral Prostate) [5]: 1464 mg*week
- duration of levator ani muscle weight increase (anabolic effects) [5]: sustained until Day 99 (Week 14)
- duration of ventral prostate weight increase (androgenic effects) [5]: sustained until Day 99 (Week 14)
- ventral prostate gland weights relative to vehicle [5]: increased

Compound: C[C@]12CCC(=O)C=C1CCC1C2CC[C@@]2(C)C1CC[C@@H]2OC(=O)CCC(=O)O[C@H]1CCC2C3CCC4=CC(=O)CC[C@]4(C)C3CC[C@@]21C (some centres unmarked) [CDB-4877]
- AUC (Levator ani muscle) [5]: 2173 mg*week
- AUC (Ventral Prostate) [5]: 524.4 mg*week
- duration of ventral prostate weight increase (androgenic effects) [5]: sustained until Day 99 (Week 14)
- ventral prostate gland weights relative to vehicle [5]: increased

Compound: C#C[C@]1(OC(=O)CCCCCCCCCCC)CCC2C3CCC4=CC(=O)CCC4C3CC[C@@]21CC (some centres unmarked) [CDB-4880]
- % parent molecule remaining after 2 hours at 37° C. [1, 6]: 78%
- % parent molecule remaining after 2 hours at 37° C. [1, 7]: 86%
- % parent molecule remaining after 2 hours at 37° C. [1, 8]: 54%
- % parent molecule remaining after 2 hours at 37° C. [1, 9]: 76%

Compound: CCCCCCCCCCCCOC(=O)O[C@H]1CCC2C3CCC4=CC(=O)CC[C@]4(C)C3CC[C@@]21C (some centres unmarked) [CDB-4883, testosterone dodecylcarbonate]
- % parent molecule remaining after 2 hours at 37° C. [1, 6]: 74%
- % parent molecule remaining after 2 hours at 37° C. [1, 7]: 84%
- % parent molecule remaining after 2 hours at 37° C. [1, 8]: 64%
- % parent molecule remaining after 2 hours at 37° C. [1, 9]: 85%

Compound: C[C@@H]1CC2=CC(=O)CC[C@@H]2C2C1C1CC[C@H](OC(=O)CCNC(=O)CCC(=O)O[C@H]3CCC4C5C([C@@H](C)C[C@@]43C)[C@H]3CCC(=O)C=C3C[C@H]5C)[C@@]1(C)C[C@@H]2C (some centres unmarked) [CDB-4886]
- duration of levator ani muscle weight increase (anabolic effects) [5]: sustained until Day 99 (Week 14)

Compound: C#C[C@]1(OC(=O)OC(C)(C)C)CCC2C3CCC4=CC(=O)CCC4C3CC[C@@]21CC (some centres unmarked) [CDB-4889]
- % parent molecule remaining after 2 hours at 37° C. [1, 6]: 100≤ %
- % parent molecule remaining after 2 hours at 37° C. [1, 7]: 100≤ %
- % parent molecule remaining after 2 hours at 37° C. [1, 8]: 12%
- % parent molecule remaining after 2 hours at 37° C. [1, 9]: 56%

Compound: CCCCCCCCCCCCOC(=O)O[C@H]1CCC2C3CCC4=CC(=O)CCC4=C3[C@@H](C)C[C@@]21C (some centres unmarked) [CDB-4892]
- % parent molecule remaining after 2 hours at 37° C. [1, 6]: 88%
- % parent molecule remaining after 2 hours at 37° C. [1, 7]: 77%
- % parent molecule remaining after 2 hours at 37° C. [1, 8]: 75%
- % parent molecule remaining after 2 hours at 37° C. [1, 9]: 82%

Compound: CC1CC2=CC(=O)CCC2(C)C2CCC3(C)C(O)CCC3C12 (stereo not drawn) [CDB-4911, 7β-methyl testosterone]
- IC50 ([3]; read-out: IC50 (nM) PR binding): 415 nM
- % remaining at 15 min [4]: 62.3%
- % remaining at 30 min [4]: 33.5%
- % remaining at 60 min [4]: 3.4%

Compound: CC[C@@H]1CC2=CC(=O)CC[C@]2(C)C2CC[C@@]3(C)C(CC[C@@H]3O)C21 (stereo partly drawn) [CDB-4918, 7α-ethyl testosterone]
- IC50 [2]: 10500 nM
- IC50 ([3]; IC50 (nM) PR binding): 672 nM
- % remaining at 15 min [4]: 33.0%
- % remaining at 30 min [4]: 0.2%
- % remaining at 60 min [4]: 0.1%

Compound: CC12CCC(=O)C=C1CC(c1ccccc1)C1C2CCC2(C)C(O)CCC12 (stereo not drawn) [CDB-4920, 7α-Phenyl Testosterone]
- IC50 [2]: 13500 nM
- IC50 ([3]; IC50 (nM) PR binding): 463 nM
- % remaining at 60 min [4]: 63.6%

Compound: CC12CCC(=O)C=C1CC(c1ccccc1)C1C2CCC2(C)C(O)CCC12 (stereo not drawn) [CDB-4921, 7β-Phenyl Testosterone]
- IC50 ([3]; read-out: IC50 (nM) PR binding): 787 nM
- % remaining at 60 min [4]: 62.5%

Compound: CCC1CC2=CC(=O)CCC2(C)C2CCC3(C)C(O)CCC3C12 (stereo not drawn) [CDB-4924, 7β-ethyl testosterone]
- IC50 ([3]; read-out: IC50 (nM) PR binding): 842 nM
- % remaining at 15 min [4]: 58.2%
- % remaining at 30 min [4]: 25.4%
- % remaining at 60 min [4]: 0.3%

Compound: DMA linolate [CDB-4895]
- % parent molecule remaining after 2 hours at 37° C. [1, 6]: 51%
- % parent molecule remaining after 2 hours at 37° C. [1, 7]: 62%
- % parent molecule remaining after 2 hours at 37° C. [1, 8]: 55%
- % parent molecule remaining after 2 hours at 37° C. [1, 9]: 60%

Compound: DMA oleate [CDB-4893]
- % parent molecule remaining after 2 hours at 37° C. [1, 6]: 60%
- % parent molecule remaining after 2 hours at 37° C. [1, 7]: 55%
- % parent molecule remaining after 2 hours at 37° C. [1, 8]: 54%
- % parent molecule remaining after 2 hours at 37° C. [1, 9]: 51%
